# Experimental data reported in article PMC2229834 (Molecular Microbiology, 2007).
# Legend:
# [1] = molecular target: T1, human PTPS (HsPTPS) (Homo sapiens, UniProt Q03393); experiment: HPLC with fluorescence of iodine-oxidised pterin products; assay type: biochemical; settings: 9 uM DHNTP, 10 mM MgCl2, 2 mM DTT, pH 8.0, 37 C, 1 h
# T1 sequence (Q03393 1-145): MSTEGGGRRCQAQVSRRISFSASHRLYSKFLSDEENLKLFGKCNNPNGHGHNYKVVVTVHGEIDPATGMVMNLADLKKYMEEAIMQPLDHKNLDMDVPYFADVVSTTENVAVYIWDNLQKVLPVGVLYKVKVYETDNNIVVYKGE
# [2] = molecular target: T2, E. coli PTPS (EcPTPS) (Escherichia coli, UniProt P65870); experiment: as above; assay type: biochemical; settings: 9 uM DHNTP, 10 mM MgCl2, 2 mM DTT, pH 8.0, 37 C, 1 h
# T2 sequence (P65870 1-121): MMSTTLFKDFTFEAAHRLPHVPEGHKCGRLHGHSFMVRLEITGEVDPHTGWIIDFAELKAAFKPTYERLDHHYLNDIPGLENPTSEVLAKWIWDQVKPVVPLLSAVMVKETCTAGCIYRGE
smiles,measurement,setting,value
Nc1nc2c(c(=O)[nH]1)N=C([C@H](O)[C@H](O)COP(=O)(O)OP(=O)(O)OP(=O)(O)O)CN2 [DHNTP],HPLC with fluorescence of iodine-oxidised pterin products,[1],Both the bacterial and human enzymes converted DHNTP to PTP as expected
same,HPLC with fluorescence of iodine-oxidised pterin products,[2],Both the bacterial and human enzymes converted DHNTP to PTP as expected
